Experiments:
[1] = tested on: patients with nephrolithiasis that were found to have hypercalciuria (>200 mg/24 hr); test: 24 hour urine calcium before and on vitamin K2 (MK7, MK4) in nephrolithiasis patients with hypercalciuria; assay type: in vivo, human
Text: Patients with hypercalciuria who were not on anticoagulants were routinely recommended vitamin K2 supplementation. […] All patients also received standard treatments for any other stone risk factor found in their work-up. As is routine, these patients were asked to repeat the 24 hr urine test, to evaluate response to treatment. […] This compared favorably to the 30-50% expected decrease in calcium when a thiazide diuretic is prescribed. See Martins, M. C., et al., Br J Urol, 1996. 78(2): p. 176-80. Furthermore, the calcium lowering effect of vitamin K2 was independent of the presence and treatment of other stone risk factors.
The average decrease in urine calcium in all eight patients was about 43%. […] (Table 1)

hypercalciuric subjects = conditions: cited from earlier work
[2] = MK7 100-150 mcg daily or bid for at least 3 weeks

For `CC(C)=CCC/C(C)=C/CC/C(C)=C/CC/C(C)=C/CC1=C(C)C(=O)c2ccccc2C1=O` [MK4], the “% difference of urine calcium, high dose MK4 vs low dose MK7” value ([1]; F 74, MK4 15 mg daily vs MK7 120 mcg daily, same background) was −40%, the “High Dose MK4 Urine Calcium” value ([1]; F 74, same background regimen, changed from MK7 120 mcg daily to MK4 15 mg daily) was 191 mg/24 hr and the “additional decrease in 24 hour urine calcium excretion” value ([1]; one patient, change from MK7 120 mcg daily to MK4 15 mg daily) was “about 40%”.
With vitamin K2 the “decrease of urinary calcium excretion” value ([1]; cases 1, 2 and 3, vitamin K administered together with other agents) was > 50% and the “decrease in urine calcium levels” value ([1]; many patients, within a month of therapy) was “more than 40%”.
For `CC(C)=CCC/C(C)=C/CC/C(C)=C/CC/C(C)=C/CC/C(C)=C/CC/C(C)=C/CC/C(C)=C/CC1=C(C)C(=O)c2ccccc2C1=O` [MK7], the “On Vitamin K Urine Calcium” value ([1]; Case 1, no prior regimen, before 650 mg/24 hr, on allopurinol 300 mg daily + MK7 100 mcg daily) was 262 mg/24 hr, the “% diff of urine calcium” value ([1]; Case 1, on allopurinol 300 mg daily + MK7 100 mcg daily vs before vitamin K) was −60% and the “% diff of urine calcium” value ([1]; Case 2, MK7 50 mcg bid with KCitrate, MgOxide, MgCitrate, Vitamin B6, allopurinol vs before vitamin K) was −54%. The “On Vitamin K Urine Calcium” value ([1]; Case 2, no prior regimen, before 312 mg/24 hr, on KCitrate 99 mg bid, MgOxide 90 mg bid, MgCitrate 90 mg bid, Vitamin B6 7.5 mg bid, allopurinol 300 mg daily, MK7 50 mcg bid) was 145 mg/24 hr, the “% diff of urine calcium” value ([1]; Case 3, KCitrate 200 mg daily + MK7 120 mcg bid vs before vitamin K) was −51% and the “On Vitamin K Urine Calcium” value ([1]; Case 3, no prior regimen, before 321 mg/24 hr, on KCitrate 200 mg daily + MK7 120 mcg bid) was 158 mg/24 hr. For the same compound, the “% diff of urine calcium” value ([1]; Case 4, KCitrate 1080 mg tid + MK7 100 mcg bid vs before vitamin K) was −61%, the “On Vitamin K Urine Calcium” value ([1]; Case 4, before KCitrate 1080 mg bid, 320 mg/24 hr, on KCitrate 1080 mg tid + MK7 100 mcg bid) was 124 mg/24 hr and the “On Vitamin K Urine Calcium” value ([1]; Case 5, before 326 mg/24 hr on allopurinol 300 mg daily, KCitrate, MgOxide, MgCitrate, Vitamin B6, on allopurinol 100 mg daily, same background + MK7 120 mcg bid) was 225 mg/24 hr. The “% diff of urine calcium” value ([1]; Case 6, MK7 120 mcg bid with HCTZ, KCitrate, MgOxide, MgCitrate, Vitamin B6 vs before vitamin K) was “+2%”, the “On Vitamin K Urine Calcium” value ([1]; Case 6, before HCTZ 12.5 mg daily, 332 mg/24 hr, on HCTZ 12.5 mg daily, KCitrate 99 mg bid, MgOxide 90 mg bid, MgCitrate 90 mg bid, Vitamin B6 7.5 mg bid, MK7 120 mcg bid) was 340 mg/24 hr and the “% diff of urine calcium” value ([1]; Case 7, MK7 150 mcg daily added to stable background regimen vs before vitamin K) was −73%. For the same compound, the “On Vitamin K Urine Calcium” value ([1]; Case 7, before 314 mg/24 hr on KCitrate, MgOxide, MgCitrate, Vitamin B6, HCTZ 25 mg bid, prednisone, vitD3, allopurinol, same regimen + MK7 150 mcg daily) was 84 mg/24 hr, the “% diff of urine calcium” value ([1]; Case 8, MK7 120 mcg daily with CaCitrate, KCitrate, MgOxide, MgCitrate, Vitamin B6 vs before vitamin K) was −15% and the “On Vitamin K Urine Calcium” value ([1]; Case 8, before CaCitrate 630 mg bid, 376 mg/24 hr, on CaCitrate 630 mg tid, KCitrate 99 mg bid, MgOxide 90 mg bid, MgCitrate 90 mg bid, Vitamin B6 7.5 mg bid, MK7 120 mcg daily) was 321 mg/24 hr. For the same compound, the “Low Dose MK7 UCa” value ([1]; F 74, CaCitrate 630 mg tid, KCitrate 99 mg bid, MgOxide 90 mg bid, MgCitrate 90 mg bid, Vitamin B6 7.5 mg bid, MK7 120 mcg daily) was 321 mg/24 hr, the “average decrease in urine calcium in all eight patients” value [1, 2] was “about 43%” and the “increase in urinary calcium in the one patient that showed no response” value [1, 2] was 2%. The “patients that exhibited a decrease in urinary calcium of greater than about 50%” value [1, 2] was 5 out of 8, the “% diff of urine calcium, mean” value ([1]; mean of cases 1-8, on vitamin K (MK7) vs before) was −43% and the “% diff of urine calcium, median” value ([1]; median of cases 1-8, on vitamin K (MK7) vs before) was −52%. For the same compound, the “average decrease in the excretion of calcium in the urine” value ([1]; seven of the eight patients, 24 hr urine) was 49%.
In the case of `CC1=C(C/C=C(\C)CCC[C@H](C)CCC[C@H](C)CCCC(C)C)C(=O)c2ccccc2C1=O` [vitamin K1], the “subjects that had a decrease in urinary calcium” value (hypercalciuric subjects; hypercalciuric subjects) is listed as 60% and the “average reduction in urinary calcium” value (hypercalciuric subjects; patients with a similar level of pre-treatment hypercalciuria) is listed as “less than 15%”.
